Where only a bound is given, the exact number is not on record here.

In one assay the test system is AM7577 cells. Briefly: Serial bleed FACS analysis and survival study in AM7577 mouse model (Example 30). The note with it: Compound A ~100 or ~150 mg/kg, quizartinib ~3 mg/kg, combination ~100 + ~2 mg/kg, p.o. qd, FIG. 8. A general note: A flow cytometer gives signals particle by particle.
Consider `CC(C)(C)c1cc(NC(=O)Nc2ccc(-c3cn4c(n3)sc3cc(OCCN5CCOCC5)ccc34)cc2)no1` [quizartinib], for which the “leukemic progression (CD45+/CD38+ blasts, serial bleed FACS)” value is reported as “evidence of leukemia breakout after 63 days”.

The same assay, now with this note: compared to vehicle, FIG. 9A.
`CC(C)(C)c1cc(NC(=O)Nc2ccc(-c3cn4c(n3)sc3cc(OCCN5CCOCC5)ccc34)cc2)no1` [quizartinib]: the overall survival result is recorded as “prolonged survival”.

The assay is the same for the next values; noted with them: quizartinib only treatment.
For the compound `CC(C)(C)c1cc(NC(=O)Nc2ccc(-c3cn4c(n3)sc3cc(OCCN5CCOCC5)ccc34)cc2)no1` [quizartinib], the surviving animals entry is given as “no surviving animals after 84 days”.

The subject of another assay is MLL-AF9 BMC. Briefly: Cell proliferation assay, MLL-AF9 bone marrow cells. As to conditions: Mus musculus. In kind it is cell-based, murine. The protocol: The ability of a compound of the present disclosure to inhibit the growth of selected cells was tested using a cell viability assay, such as the Promega CellTiter-Glo® Luminescent Cell Viability Assay (Promega Technical Bulletin, 2015, “CellTiter-Glo® Luminescent Cell Viability Assay”: 1-15, herein incorporated by reference in its entirety) or MTT cell proliferation assay (ATCC® 30-1010K) or cell counting. Compounds of the present disclosure can be tested in both acute myeloid leukemia cell lines or Ewing's sarcoma cell lines and control cell lines without the genetic abnormality or mutation being investigated (e.g., K562, REH, U937, KG-1, and/or HL-60). Selected cells can include, but are not limited to, cells such as human leukemia cell, acute myeloid leukemia cell, Ewing's sarcoma cell (e.g., SK-NEP-1, EW5, EW8, TC-71, TC-106, CHLA258, CHLA-9, CHLA-10, SK-ES-1, Hs 822.T, A-673, A-4573, Hs 863.T, RD-ES, CHLA-25, CHLA-32, CHLA-99, COG-E-352, TC-32, SK-N-MC), VCaP, LNCaP, 22RV1, DU145, LNCaP-AR, MV4;11, KOPN-8, ML-2, MOLM-13, RS4;11, SEM, bone marrow cells (BMCs), myeloblast cell, lymphoblast cell, NUP98 gene fusion cell (e.g., NUP98-PHF23 cell), NUP98-PHF23 (NP23) myeloblast cell (e.g., 961C), NUP98-PHF23 (NP23) lymphoblast cell (e.g., 748T, 106A), cell with an NPM1 mutation (e.g., OCI-AML3), cell without an NPM1 mutation, cell with a DNMT3A mutation (e.g., OCI-AML3, OCI-AML2, SET2), cell without a DNMT3A mutation, cell with a FLT3 mutation, cell without a FLT3 mutation, cell with an IDH1 mutation, cell without an IDH1 mutation, cell with an IDH2 mutation, cell without an IDH2 mutation, cell with a mixed lineage leukemia (MLL) gene amplification (e.g., UoC-M1, 2L1), cell without a mixed lineage leukemia (MLL) gene amplification, MLL-AF9, MLL-AF4, MLL-ENL, HM-2, E2A-HLF, REH, U937, HL-60, NB4, K562, KG-1, and OCI-AML2 cells. Cells were plated at relevant concentrations, for example about 1×10^5-2×10^5 cells per well in a 96-well plate. A compound of the present disclosure was added at a concentration up to about 2 μM with seven or eight, 2-fold serial dilutions for each compound. Cells were incubated at 37° C. for a period of time, for example, 72 hours, then cells in the control wells were counted. Media was changed to restore viable cell numbers to the original concentration, and compounds were re-supplied. Proliferation was measured about 72 hours later or about 96 hours later using Promega CellTiter-Glo® reagents or MTT reagents, as per kit instructions.
Consider `Cc1c(CN2CCC(Nc3ncnc4sc(CC(F)(F)F)cc34)CC2)ccc2c1cc(C#N)n2C[C@@H](C)N1CCN(S(C)(=O)=O)CC1` [Compound I-9], for which the GI50 lay within 250 to 1000 nM.
In turn, `Cc1c(CN2CCC(Nc3ncnc4sc(CC(F)(F)F)cc34)CC2)ccc2c1cc(C#N)n2C[C@H](C)N1CCN(S(C)(=O)=O)CC1` [Compound I-10] displayed a GI50 of 10 to 50 nM.
Still for that read-out and setting: then `Cc1c(CN2CCC(Nc3ncnc4sc(CC(F)(F)F)cc34)CC2)ccc2c1cc(C#N)n2CC(C)N1CCN(S(C)(=O)=O)C(C(N)=O)C1` (stereo not shown) [Compound I-80], with 10 to 50 nM.
Same read-out and setting: then `CNS(=O)(=O)N1CCN([C@@H](C)Cn2c(C#N)cc3c(C)c(CN4CCC(Nc5nc(N)nc6sc(CC(F)(F)F)cc56)CC4)ccc32)CC1` [Compound I-132], with less than 10 nM; and `Cc1c(CN2CCC(Nc3nc(N)nc4sc(CC(F)(F)F)cc34)CC2)ccc2c1cc(C#N)n2C[C@H](C)N1CCN(S(C)(=O)=O)CC1` [Compound I-135], with less than 10 nM.
For the compound `Cc1nc(NC2CCN(Cc3ccc4c(cc(C#N)n4C[C@H](C)N4CCN(S(C)(=O)=O)CC4)c3C)CC2)c2cc(CC(F)(F)F)sc2n1` [Compound I-138], the concentration for 50% growth inhibition (GI50) lay in the range of 10 to 50 nM.
The same measure, in the same setting: under `CNS(=O)(=O)N1CCN([C@@H](C)Cn2c(C#N)cc3c(C)c(CN4CCC(Nc5nc(C)nc6sc(CC(F)(F)F)cc56)CC4)ccc32)CC1` [Compound I-139] stands 10 to 50 nM.
The same measure, in the same setting: then `CNc1nc(NC2CCN(Cc3ccc4c(cc(C#N)n4C[C@H](C)N4CCN(S(C)(=O)=O)CC4)c3C)CC2)c2cc(CC(F)(F)F)sc2n1` [Compound I-151], with less than 10 nM; and `Cc1c(CN2CCC(Nc3ncnc4sc(CC(F)(F)F)cc34)CC2)ccc2c1cc(C#N)n2C[C@H](C)N1CCN(S(C)(=O)=O)[C@H](C(N)=O)C1` [Compound I-163], with less than 10 nM; and `Cc1nc(NC2CCN(Cc3ccc4c(cc(C#N)n4C[C@H](C)N4CCC(S(C)(=O)=O)CC4)c3C)CC2)c2cc(CC(F)(F)F)sc2n1` [Compound I-165], with less than 10 nM.
With `CCc1nc(NC2CCN(Cc3ccc4c(cc(C#N)n4C[C@H](C)N4CCN(S(C)(=O)=O)CC4)c3C)CC2)c2cc(CC(F)(F)F)sc2n1` [Compound I-171], the concentration for 50% growth inhibition (GI50) lay in the range of 10 to 50 nM.
`C[C@@H](Cn1c(C#N)cc2cc(CN3CCC(Nc4nc(N)nc5sc(CC(F)(F)F)cc45)CC3)c(O)cc21)N1CCN(S(C)(=O)=O)CC1` [Compound I-172]: the concentration for 50% growth inhibition (GI50) was less than 10 nM.
Same read-out and setting: under `CCNc1nc(NC2CCN(Cc3ccc4c(cc(C#N)n4C[C@H](C)N4CCN(S(C)(=O)=O)CC4)c3C)CC2)c2cc(CC(F)(F)F)sc2n1` [Compound I-174] stands 10 to 50 nM; under `Cc1c(CN2CCC(Nc3nc(N)nc4sc(CC(F)(F)F)cc34)CC2)ccc2c1cc(C#N)n2C[C@H](C)N1CCN(CC(N)=O)CC1` [Compound I-175], 10 to 50 nM; under `CNC(=O)CN1CCN([C@@H](C)Cn2c(C#N)cc3c(C)c(CN4CCC(Nc5nc(N)nc6sc(CC(F)(F)F)cc56)CC4)ccc32)CC1` [Compound I-176], 10 to 50 nM.
`CNS(=O)(=O)N1CCN([C@@H](C)Cn2c(C#N)cc3cc(CN4CCC(Nc5nc(N)nc6sc(CC(F)(F)F)cc56)CC4)c(O)cc32)CC1` [Compound I-177] had a concentration for 50% growth inhibition (GI50) of less than 10 nM.
In turn, `Cc1c(CN2CCC(Nc3nc(N)nc4sc(CC(F)(F)F)cc34)CC2)ccc2c1cc(C#N)n2C[C@H](C)N1CCN(CC(=O)N(C)C)CC1` [Compound I-181] gave a 50% growth inhibitory concentration (GI50) of 10 to 50 nM.
Consider `COc1nc(NC2CCN(Cc3ccc4c(cc(C#N)n4C[C@H](C)N4CCN(S(C)(=O)=O)CC4)c3C)CC2)c2cc(CC(F)(F)F)sc2n1` [Compound I-183], for which the 50% growth inhibitory concentration (GI50) is less than 10 nM.
`CNc1nc(NC2CCN(Cc3ccc4c(cc(C#N)n4C[C@H](C)N4CCC(C)(C#N)CC4)c3C)CC2)c2cc(CC(F)(F)F)sc2n1` [Compound I-199]: the concentration for 50% growth inhibition (GI50) is less than 10 nM.
The compound `CNc1nc(NC2CCN(Cc3ccc4c(cc(C#N)n4C[C@H](C)N4CCS(=O)(=O)CC4)c3C)CC2)c2cc(CC(F)(F)F)sc2n1` [Compound I-203] displayed a GI50 of less than 10 nM.
For the compound `CNS(=O)(=O)N1CCN([C@@H](C)Cn2c(C#N)cc3c(C)c(CN4CCC(Nc5nc(OC)nc6sc(CC(F)(F)F)cc56)CC4)ccc32)CC1` [Compound I-205], the GI50 is less than 10 nM.
Compound `CNc1nc(NC2CCN(Cc3ccc4c(cc(C#N)n4C[C@H](C)N4CCC(C)(O)CC4)c3C)CC2)c2cc(CC(F)(F)F)sc2n1` [Compound I-207] gave a GI50 of less than 10 nM.
As to `CNS(=O)(=O)C1CCN([C@@H](C)Cn2c(C#N)cc3c(C)c(CN4CCC(Nc5nc(OC)nc6sc(CC(F)(F)F)cc56)CC4)ccc32)CC1` [Compound I-214], the GI50 is less than 10 nM.
For the compound `CNC(=O)C1CN([C@@H](C)Cn2c(C#N)cc3c(C)c(CN4CCC(Nc5nc(NC)nc6sc(CC(F)(F)F)cc56)CC4)ccc32)CCO1` (stereo partly shown) [Compound I-217], the concentration for 50% growth inhibition (GI50) lay within 10 to 50 nM.

Another assay concerns LXFE 2734 cells. The assay can be described thus: Serial bleed FACS analysis and survival study in LXFE 2734 mouse model. As to conditions: LXFE 2734 model, compared to vehicle; FIG. 11.
Text: Human leukemia cells were detected by FACS biweekly starting from week 2 post-cell inoculation.
For the compound `CC(C)(C)c1cc(NC(=O)Nc2ccc(-c3cn4c(n3)sc3cc(OCCN5CCOCC5)ccc34)cc2)no1` [quizartinib], the overall survival entry was “prolonged survival”.

The assay is the same for the next values; noted with them: LXFE 2734 model, quizartinib ~3 mg/kg qd.
For the compound `CC(C)(C)c1cc(NC(=O)Nc2ccc(-c3cn4c(n3)sc3cc(OCCN5CCOCC5)ccc34)cc2)no1` [quizartinib], the surviving animals entry is recorded as “no quizartinib treated animals surviving after 77 days”.

Staying with this assay, now noted: LXFE 2734 model; Compound A ~150 mg/kg p.o. qd, quizartinib ~3 mg/kg qd; FIG. 10.
In the case of `CC(C)(C)c1cc(NC(=O)Nc2ccc(-c3cn4c(n3)sc3cc(OCCN5CCOCC5)ccc34)cc2)no1` [quizartinib], the “leukemic progression (CD45+/CD33+ blasts, FACS)” value is “evidence of leukemia relapse”.

A further assay deals with T1, menin-MLL interaction (Homo sapiens, UniProt O00255).
T1 sequence (O00255 1-610): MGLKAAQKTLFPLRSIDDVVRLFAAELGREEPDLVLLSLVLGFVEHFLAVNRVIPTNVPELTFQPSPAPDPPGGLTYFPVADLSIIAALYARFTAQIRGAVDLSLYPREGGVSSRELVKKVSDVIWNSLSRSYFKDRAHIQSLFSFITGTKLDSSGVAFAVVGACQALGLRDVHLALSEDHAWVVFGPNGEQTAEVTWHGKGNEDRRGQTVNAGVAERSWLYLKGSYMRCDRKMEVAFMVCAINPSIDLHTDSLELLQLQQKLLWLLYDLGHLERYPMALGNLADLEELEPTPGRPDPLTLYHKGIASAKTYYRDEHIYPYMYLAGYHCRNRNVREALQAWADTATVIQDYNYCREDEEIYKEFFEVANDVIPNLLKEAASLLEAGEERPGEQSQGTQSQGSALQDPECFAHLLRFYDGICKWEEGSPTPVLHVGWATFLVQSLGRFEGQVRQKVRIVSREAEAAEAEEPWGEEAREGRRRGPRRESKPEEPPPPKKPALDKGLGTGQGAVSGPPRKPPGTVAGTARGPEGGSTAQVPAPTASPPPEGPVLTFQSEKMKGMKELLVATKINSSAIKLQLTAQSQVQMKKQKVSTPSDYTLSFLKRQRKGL
The assay can be described thus: Fluorescence polarization (FP) competition assay. In kind it is binding. As to conditions: read-out: Menin MLL 4-43 IC50.
Take `Cc1c(CN2CCC(Nc3ncnc4sc(CC(F)(F)F)cc34)CC2)ccc2c1cc(C#N)n2CCN1CCC2(CC1)CCN(S(C)(=O)=O)C2` [Compound I-52]: the half-maximal inhibitory concentration (IC50) is 250 to 1000 nM.

For orientation: GI50 means the concentration at which growth is held to half of that of the control. Lower therefore signals greater sensitivity of the cells. The IC50 is the concentration that inhibits the measured activity by half.
